According to patent US20040018220A1, “Aqueous compositions for facial cosmetics” (Chiou Consulting, Inc., priority 2002, published 2004):

Tested on: facial skin
Assay: Single application of glycerin U.S.P. and other strengths of aqueous glycerin solutions and gels (Example IV)
Type: in vivo, human

OCC(O)CO [Glycerin U.S.P., glycerin]
feeling on application (applied to a wetted facial surface): better feeling (reduced stickiness) | shiny, moist, softening and dewy effects (single application, one human subject): results similar to those described in Example I
